Values quoted from earlier work in US11964046B2, “Topical composition for the control of pain in animals” (priority 2016, dated 2024).

Tested on: piglets
[1] = lidocaine injected at least three minutes prior to castration, p<0.001

For `CCN(CC)CC(=O)Nc1c(C)cccc1C` [lidocaine], the “pain during castration (study conclusion)” value (injected) is given as “reduced pain during castration”, the “intensity of calls during castration” value [1] is given as “lower intensity” and the “resistance movements during castration” value [1] is given as “less resistance movements”.
